Data reported in patent US10590413B2, “Chiral control” (WAVE LIFE SCIENCES LTD., priority 2012, dated 2020).
pIC50: −log10 of the molar value. Where two headings read alike, the source gives them in different places. Strand notation (5' to 3'): a small letter for the sugar, then the base; units joined by * are phosphorothioate-linked, units joined directly phosphodiester-linked; [ ] holds rarer units or linkages, { } end groups; capitals alone tell only the bases. [Rp] = phosphorothioate linkage, Rp; [Sp] = phosphorothioate linkage, Sp; e = 2'-O-(2-methoxyethyl) (MOE); [5mC] = 5-methylcytosine; d = 2'-deoxy (DNA)

Key:
[1] = system: Apolipoprotein B (Apo B) (NM_000384); assay: Apo B gene expression in Hep3B cells after Lipofectamine 2000 transfection, real-time PCR SYBR green (Example 50); format: cell-based, Homo Sapiens; conditions: for IC50: read-out: IC50 (nM) (rounded up to single digit); for pIC50: Complete IC50 data evaluated by SYBR green, 24 hours, 3 biological replicates, read-out: IC50; for activity compared to Mipomersen (120) / potency compared to the corresponding stereorandom oligonucleotide mixture (Oligonucleotide 118): from Table E-19 IC50, Hep3B
Method: After checking OD all oligonucleotide candidate molecules were diluted to a starting concentration of 20 μM. Multidose forward transfection experiment was setup in 96-well plates using Hep3B cells (ATCC®, Cat. HB-8064™) using Lipofectamine 2000 (Life Technologies, Cat. 11668-019) transfection reagent.
2×10^4 Hep3B cells per well were seeded and incubated for 24 hours at 37° C. in a CO2 incubator in 100 μl of antibiotic free MEM medium (Life Technologies, Cat. 11095098) containing 10% FBS and 1% Glutamax I (Life Technologies, Cat. 35050061). Twelve dilutions were setup in nuclease free water (Table E-16).
For each well, 0.5 μL of Lipofectamine 2000 were mixed with 9.5 μL of Opti MEM I reduced serum medium (Life Technologies, Cat. 31985062) and incubated for 5 minutes. Following incubation, 10 μL of each of the candidates at the reported concentrations was mixed with the diluted Lipofectamine 2000 by gentle pipetting. The mixture was then incubated for 20 minutes at room temperature to allow for complex formation. During this time the cell growth medium was replaced with 80 μL of fresh antibiotic free MEM as previously described. 20 μL of lipid-oligo complex was gently mixed into each well bringing the total volume to 100 μL. The cells were then incubated for 24 hours at 37° C. in a CO2 incubator.
After 24 hour incubation the cell growth medium was removed and RNA was extracted using a Dynabeads mRNA Direct kit (Life Technologies, Cat. 61012) per the instructions provided in the kit manual without modifications. This magnetic Oligo (dT)^25 bead system allows for cost-effective and robust high-throughput poly (A) RNA extraction circumventing DNAse treatment. RNA was eluted in nuclease-free water and stored at −80° C.
10 μL of RNA was used in a 20 μL cDNA synthesis reaction using a High Capacity cDNA Reverse Transcription Kit (Life Technologies, Cat. 4374967) using the kit protocol with RNAse Inhibitor. The reverse transcription was performed in a 96-well format on a C1000 Touch thermal cycler (Biorad, Cat. 185-1196EDU).
Gene expression was measured by quantitative PCR using a LightCycler® 480 SYBR Green I Master (Roche, Cat. 04707516001) on LightCycler 480 Real-Time PCR instrument. Primers for the Homo Sapiens sequences of the target Apolipoprotein B (Apo B) (NM_000384) and endogenous control Glyceralydhyde-3-phosphate dehydrogenase (GAPDH) (NM_002046) were designed and ordered from IDT (Table E-17).
Measurement of the target and endogenous control was performed in separate wells using material from the same cDNA template. SYBR green assay PCR conditions were setup as described in the SYBR Green I Master protocol (Table E-18).
The data is a result of 3 biological replicates. All samples were compared to Naïve untransfected control. The following results were observed when evaluating gene expression by real-time PCR using SYBR green (Table E-19, FIG. 5).

complementary RNA = assay: Thermal denaturation experiment (Tm) of DNA strand with complementary RNA (Example 49); format: binding; conditions: duplex with complementary RNA, equimolar 0.5 μM in 1×PBS; first derivative of 254 nm absorbance curve
Method: Each DNA strand was mixed with complementary RNA in equimolar concentration of 0.5 μM in 1×PBS. Total 2.5 mL solution was prepared for each duplex and the mixture was heated at 90° C. for 2 min and was allowed to cool down over the course of several hours. The mixtures were then stored at 4° C. for 2 hrs. Absorbance at 254 nm was recorded at an interval of 0.5 min starting the temperature gradient from 15° C. to 90° C. with rise of 0.5° C./minute, using a Perkin Elmer UV-spectrophotometer equipped with a Peltier unit. The 254 nm absorbance was plotted against the temperature and the Tm values were calculated from the respective first derivative of each curve.

Mouse B Cells = conditions: mean and std. dev. of at least 3 experiments, compared to wells with no added ODN, cited from earlier work
[2] = Apo B mRNA, Hep3B cells, 24 hours after transfection

| Substance | IC50 (nM) (rounded up to single digit) [1, 2] | Tm (° C.) ± 0.5 (complementary RNA) | Stimulation Index, 3H Uridine (Mouse B Cells; US 6,239,116 Table 1) | Stimulation Index, IgM Production (Mouse B Cells; US 6,239,116 Table 1) | Stimulation Index, 3H Uridine (Mouse B Cells) | IC50 [1, 2] | pIC50 ([1]; Apo B mRNA, Hep3B cells) | activity compared to Mipomersen (120) [1] | potency compared to the corresponding stereorandom oligonucleotide mixture (Oligonucleotide 118) [1] |
| --- | --- | --- | --- | --- | --- | --- | --- | --- | --- |
| 119 (DNA GCCTCAGTCTGCTTCGCACC; unmodified DNA) [Oligonucleotide 119] | Not detected | 73.4 °C |  |  |  |  |  |  |  |
| (Rp, Rp, Rp, Rp, Rp, Sp, Sp, Sp, Sp, Sp, Sp, Sp, Sp, Sp, Rp, Rp, Rp, Rp, Rp)-d[GsCsCsTsCsAsGsTsCsTsGsCsTsTsCsGsCsAsCsC] (DNA GCCTCAGTCTGCTTCGCACC; DNA, linkages [Rp]5 [Sp]9 [Rp]5 (s phosphorothioate, o phosphodiester), methylation of C not given here) [Oligonucleotide 103] |  | 63.4 °C | 6.1 ± 1.4 | 19.2 ± 5.2 | 6.1 ± 1.4 | 6 nM | 8.24 |  |  |
| (Rp, Rp, Rp, Sp, Sp, Sp, Sp, Sp, Sp, Sp, Sp, Sp, Sp, Sp, Sp, Sp, Rp, Rp, Rp)-d[GsCsCsTsCsAsGsTsCsTsGsCsTsTsCsGsCsAsCsC] (DNA GCCTCAGTCTGCTTCGCACC; DNA, linkages [Rp]3 [Sp]13 [Rp]3 (s phosphorothioate, o phosphodiester), methylation of C not given here) [Oligonucleotide 110] |  | 62.9 °C |  |  |  | 7 nM | 8.13 |  |  |
| (Rp, Rp, Sp, Rp, Rp, Sp, Rp, Rp, Sp, Rp, Rp, Sp, Rp, Rp, Sp, Rp, Rp, Sp, Rp)-d[GsCsCsTsCsAsGsTsCsTsGsCsTsTsCsGsCsAsCsC] (DNA GCCTCAGTCTGCTTCGCACC; DNA, linkages [Rp][Rp][Sp][Rp][Rp][Sp][Rp][Rp][Sp][Rp][Rp][Sp][Rp][Rp][Sp][Rp][Rp][Sp][Rp] (s phosphorothioate, o phosphodiester), methylation of C not given here) [Oligonucleotide 114] |  | 65.2 °C |  |  |  | 5 nM | 8.28 |  |  |
| (Rp, Sp, Rp, Rp, Sp, Rp, Rp, Sp, Rp, Rp, Sp, Rp, Rp, Sp, Rp, Rp, Sp, Rp, Rp)d[GsCsCsTsCsAsGsTsCsTsGsCsTsTsCsGsCsAsCsC] (DNA dG[Rp]dC[Sp]dC[Rp]dT[Rp]dC[Sp]dA[Rp]dG[Rp]dT[Sp]dC[Rp]dT[Rp]dG[Sp]dC[Rp]dT[Rp]dT[Sp]dC[Rp]dG[Rp]dC[Sp]dA[Rp]dC[Rp]dC) [Oligonucleotide 116] |  | 64.8 °C |  |  |  | 2 nM | 8.72 | more active | more potent |
| (Rp, Sp, Rp, Sp, Rp, Sp, Rp, Sp, Rp, Sp, Rp, Sp, Rp, Sp, Rp, Sp, Rp, Sp, Rp)-d[GsCsCsTsCsAsGsTsCsTsGsCsTsTsCsGsCsAsCsC] (DNA GCCTCAGTCTGCTTCGCACC; DNA, linkages [Rp][Sp][Rp][Sp][Rp][Sp][Rp][Sp][Rp][Sp][Rp][Sp][Rp][Sp][Rp][Sp][Rp][Sp][Rp] (s phosphorothioate, o phosphodiester), methylation of C not given here) [Oligonucleotide 107] |  | 64.5 °C |  |  |  | 4 nM | ~8.38 | more active |  |
| (Rp, Sp, Sp, Sp, Sp, Sp, Sp, Sp, Sp, Sp, Sp, Sp, Sp, Sp, Sp, Sp, Sp, Sp, Rp)-d[GsCsCsTsCsAsGsTsCsTsGsCsTsTsCsGsCsAsCsC] (DNA GCCTCAGTCTGCTTCGCACC; DNA, linkages [Rp]1 [Sp]17 [Rp]1 (s phosphorothioate, o phosphodiester), methylation of C not given here) [Oligonucleotide 106] |  | 61.8 °C |  |  |  | 4 nM | ~8.41 | more active |  |
| (Sp, Rp, Rp, Rp, Rp, Rp, Rp, Rp, Rp, Rp, Rp, Rp, Rp, Rp, Rp, Rp, Rp, Rp, Sp)-d[GsCsCsTsCsAsGsTsCsTsGsCsTsTsCsGsCsAsCsC] (DNA GCCTCAGTCTGCTTCGCACC; DNA, linkages [Sp]1 [Rp]17 [Sp]1 (s phosphorothioate, o phosphodiester), methylation of C not given here) [Oligonucleotide 105] |  | 66.5 °C |  |  |  | 3 nM | 8.54 | more active | more potent |
| (Sp, Rp, Rp, Sp, Rp, Rp, Sp, Rp, Rp, Sp, Rp, Rp, Sp, Rp, Rp, Sp, Rp, Rp, Sp)-d[GsCsCsTsCsAsGsTsCsTsGsCsTsTsCsGsCsAsCsC] (DNA GCCTCAGTCTGCTTCGCACC; DNA, linkages [Sp][Rp][Rp][Sp][Rp][Rp][Sp][Rp][Rp][Sp][Rp][Rp][Sp][Rp][Rp][Sp][Rp][Rp][Sp] (s phosphorothioate, o phosphodiester), methylation of C not given here) [Oligonucleotide 115] |  | 65.2 °C |  |  |  | 3 nM | 8.57 | more active | more potent |
| (Sp, Rp, Sp, Rp, Sp, Rp, Sp, Rp, Sp, Rp, Sp, Rp, Sp, Rp, Sp, Rp, Sp, Rp, Sp)-d[GsCsCsTsCsAsGsTsCsTsGsCsTsTsCsGsCsAsCsC] (DNA GCCTCAGTCTGCTTCGCACC; DNA, linkages [Sp][Rp][Sp][Rp][Sp][Rp][Sp][Rp][Sp][Rp][Sp][Rp][Sp][Rp][Sp][Rp][Sp][Rp][Sp] (s phosphorothioate, o phosphodiester), methylation of C not given here) [Oligonucleotide 108] |  | 64.8 °C |  |  |  | 3 nM | 8.50 |  |  |
| (Sp, Sp, Sp, Rp, Rp, Rp, Rp, Rp, Rp, Rp, Rp, Rp, Rp, Rp, Rp, Rp, Sp, S, Sp)d[GsCsCsTsCsAsGsTsCsTsGsCsTsTsCsGsCsAsCsC] (DNA GCCTCAGTCTGCTTCGCACC; DNA, linkages [Sp]3 [Rp]13 [Sp]3 (s phosphorothioate, o phosphodiester), methylation of C not given here) [Oligonucleotide 109] |  | 65.8 °C |  |  |  | 2 nM | 8.76 | more active | more potent |
| (Sp, Sp, Sp, Sp, Sp, Rp, Rp, Rp, Rp, Rp, Rp, Rp, Rp, Rp, Sp, Sp, Sp, Sp, Sp)-d[GsCsCsTsCsAsGsTsCsTsGsCsTsTsCsGsCsAsCsC] (DNA GCCTCAGTCTGCTTCGCACC; DNA, linkages [Sp]5 [Rp]9 [Sp]5 (s phosphorothioate, o phosphodiester), methylation of C not given here) [Oligonucleotide 104] |  | 63.5 °C |  |  |  | 4 nM | 8.37 | more active |  |
| Mipomersen (DNA eG*e[5mC]*e[5mC]*eT*e[5mC]*dA*dG*dT*d[5mC]*dT*dG*d[5mC]*dT*dT*d[5mC]*eG*e[5mC]*eA*e[5mC]*e[5mC]) [Oligonucleotide 120, "Mipomersen, which is a stereorandom oligonucleotide mixture (Oligonucleotides 104, 105 ... compared to 120)", reference compound] |  | 65.3 °C |  |  |  | 4 nM | 8.36 |  |  |
